According to ChEMBL document CHEMBL1201862, “PubChem BioAssay data set” (2004):
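Cultured in 96-well plates, cells were exposed to test compound for 48 hours across five concentrations. Abbreviation: GI50, concentration required for 50% inhibition of growth.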 The source made the active and inactive calls. Rule as the data show it: active = GI50 up to about 1.1 µM and inactive = higher.

Columns and labels:
Assay in all cases: growth of human tumour cells (NCI), 48 h
KM12 = system: KM12
SNB-19 = system: SNB-19
HL-60 = system: HL-60
786-0 = system: 786-0
IGROV-1 = system: IGROV-1
OVCAR-5 = system: OVCAR-5
MOLT-4 = system: MOLT-4
SN12C = system: SN12C
NCI-H522 = system: NCI-H522
COLO 205 = system: COLO 205
M14 = system: M14
CAKI-1 = system: CAKI-1
DU-145 = system: DU-145
SK-MEL-2 = system: SK-MEL-2
RXF 393 = system: RXF 393
SW-620 = system: SW-620
MDA-MB-435 = system: MDA-MB-435
NCI-H460 = system: NCI-H460
HCT-15 = system: HCT-15
HCC 2998 = system: HCC 2998

| SMILES | GI50 (KM12) | GI50 (SNB-19) | GI50 (HL-60) | GI50 (786-0) | GI50 (IGROV-1) | GI50 (OVCAR-5) | GI50 (MOLT-4) | GI50 (SN12C) | GI50 (NCI-H522) | GI50 (COLO 205) | GI50 (M14) | GI50 (CAKI-1) | GI50 (DU-145) | GI50 (SK-MEL-2) | GI50 (RXF 393) | GI50 (SW-620) | GI50 (MDA-MB-435) | GI50 (NCI-H460) | GI50 (HCT-15) | GI50 (HCC 2998) |
| --- | --- | --- | --- | --- | --- | --- | --- | --- | --- | --- | --- | --- | --- | --- | --- | --- | --- | --- | --- | --- |
| Cc1cn(C2CC(Br)C(COC(c3ccccc3)(c3ccccc3)c3ccccc3)O2)c(=O)[nH]c1=O (centres undefined) | 6.71 µM (inactive) | 16.3 µM (inactive) | 4.76 µM (inactive) | 14.3 µM (inactive) | 14.2 µM (inactive) | 16.6 µM (inactive) | 8.17 µM (inactive) | 14.7 µM (inactive) | 7.24 µM (inactive) | 14 µM (inactive) | 13.2 µM (inactive) | 15.1 µM (inactive) | 14.5 µM (inactive) | 14.6 µM (inactive) | 11.2 µM (inactive) | 14.3 µM (inactive) | 14.7 µM (inactive) | – | – | – |
| CC1CN(C)c2ccccc2N=C1NN (centres undefined) | > 100 µM (inactive) | > 100 µM (inactive) | > 100 µM (inactive) | > 100 µM (inactive) | > 100 µM (inactive) | > 100 µM (inactive) | > 100 µM (inactive) | > 100 µM (inactive) | > 100 µM (inactive) | > 100 µM (inactive) | > 100 µM (inactive) | > 100 µM (inactive) | > 100 µM (inactive) | > 100 µM (inactive) | 0.217 µM (active) | > 100 µM (inactive) | > 100 µM (inactive) | > 100 µM (inactive) | > 100 µM | – |
| Oc1ccc(CNCc2ccccc2)c2cccnc12 | 0.448 µM (active) | 0.211 µM (active) | 0.294 µM (active) | 0.383 µM (active) | 0.292 µM (active) | 1.22 µM (inactive) | 0.215 µM (active) | 0.0601 µM (active) | 0.222 µM (active) | 2.65 µM (inactive) | 0.27 µM (active) | 0.48 µM (active) | 0.0452 µM (active) | 0.264 µM (active) | 0.116 µM (active) | 0.356 µM (active) | 0.0841 µM (active) | 0.034 µM (active) | 0.0628 µM | – |
| CN(C(=O)c1cccs1)C(=S)N1CCN(c2ccccc2)CC1 | > 100 µM (inactive) | > 100 µM (inactive) | 68.5 µM (inactive) | > 100 µM (inactive) | > 100 µM (inactive) | > 100 µM (inactive) | 51.8 µM (inactive) | > 100 µM (inactive) | > 100 µM (inactive) | > 100 µM (inactive) | > 100 µM (inactive) | – | > 100 µM (inactive) | > 100 µM (inactive) | > 100 µM (inactive) | > 100 µM (inactive) | > 100 µM (inactive) | > 100 µM (inactive) | > 100 µM | > 100 µM (inactive) |
| Cc1nc2ccccc2c(=O)n1-c1n[nH]c2ccccc12 | > 100 µM (inactive) | > 100 µM (inactive) | – | > 100 µM (inactive) | > 100 µM (inactive) | > 100 µM (inactive) | > 100 µM (inactive) | > 100 µM (inactive) | > 100 µM (inactive) | > 100 µM (inactive) | > 100 µM (inactive) | > 100 µM (inactive) | > 100 µM (inactive) | > 100 µM (inactive) | > 100 µM (inactive) | > 100 µM (inactive) | > 100 µM (inactive) | > 100 µM (inactive) | > 100 µM | > 100 µM (inactive) |
| COc1cc2c(cc1OC)C(N)CC2=O (centres undefined) | > 100 µM (inactive) | > 100 µM (inactive) | – | > 100 µM (inactive) | > 100 µM (inactive) | > 100 µM (inactive) | > 100 µM (inactive) | > 100 µM (inactive) | > 100 µM (inactive) | > 100 µM (inactive) | > 100 µM (inactive) | > 100 µM (inactive) | > 100 µM (inactive) | > 100 µM (inactive) | > 100 µM (inactive) | > 100 µM (inactive) | > 100 µM (inactive) | – | > 100 µM | > 100 µM (inactive) |
| CCCCCCCCCC(=O)OCC1(CO)C/C(=C/CC(C(C)C)C(C)C)C(=O)O1 (centres undefined) | 10.2 µM (inactive) | 32.6 µM (inactive) | – | 35.7 µM (inactive) | 37.7 µM (inactive) | 64.9 µM (inactive) | 14.5 µM (inactive) | 51.9 µM (inactive) | 19.4 µM (inactive) | 9.18 µM (inactive) | 51.2 µM (inactive) | 16 µM (inactive) | 71 µM (inactive) | > 100 µM (inactive) | > 100 µM (inactive) | 26.9 µM (inactive) | 31.6 µM (inactive) | 23.5 µM (inactive) | 84.5 µM | 39.3 µM (inactive) |
| O=S1(=O)c2ccccc2N2C(c3ccccc3)=NOC2(c2ccccc2)CC1c1ccc(Br)cc1 (centres undefined) | > 100 µM (inactive) | > 100 µM (inactive) | > 100 µM (inactive) | > 100 µM (inactive) | > 100 µM (inactive) | > 100 µM (inactive) | > 100 µM (inactive) | > 100 µM (inactive) | > 100 µM (inactive) | > 100 µM (inactive) | 95.7 µM (inactive) | – | > 100 µM (inactive) | > 100 µM (inactive) | > 100 µM (inactive) | > 100 µM (inactive) | > 100 µM (inactive) | > 100 µM (inactive) | > 100 µM | > 100 µM (inactive) |
